{
  "source": "paper PMC6879718",
  "about": "“Mycobacterial OtsA Structures Unveil Substrate Preference Mechanism and Allosteric Regulation by 2-Oxoglutarate and 2-Phosphoglycerate” (mBio, 2019)",
  "key": {"MtrOtsA [1]": {"target": "T1, MtrOtsA (Mycolicibacterium thermoresistibile, UniProt G7CGT2)", "T1 sequence (G7CGT2 1-486)": "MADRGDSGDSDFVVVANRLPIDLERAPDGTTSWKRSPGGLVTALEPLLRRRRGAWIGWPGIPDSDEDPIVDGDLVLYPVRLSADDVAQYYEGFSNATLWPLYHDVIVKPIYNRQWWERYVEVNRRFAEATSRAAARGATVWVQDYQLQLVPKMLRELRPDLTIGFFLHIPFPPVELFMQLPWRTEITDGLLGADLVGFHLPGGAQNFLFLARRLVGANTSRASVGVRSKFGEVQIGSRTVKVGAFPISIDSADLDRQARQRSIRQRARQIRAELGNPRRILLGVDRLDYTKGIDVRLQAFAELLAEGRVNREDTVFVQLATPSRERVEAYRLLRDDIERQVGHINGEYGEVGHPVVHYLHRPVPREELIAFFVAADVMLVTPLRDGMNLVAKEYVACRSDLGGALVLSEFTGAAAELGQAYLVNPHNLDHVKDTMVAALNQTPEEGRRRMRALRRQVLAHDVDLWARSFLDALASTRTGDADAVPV", "experiment": "biochemical"}, "[2]": {"target": "T2, M. thermoresistibile OtsA V363F (Mycolicibacterium thermoresistibile, UniProt G7CGT2, V363F)", "T2 sequence (G7CGT2 1-486 V363F)": "T1 sequence (G7CGT2 1-486)", "experiment": "OtsA kinetic parameters, continuous colorimetric coupled assay (V363F)", "type": "biochemical, Mycobacterium thermoresistibile"}, "[3]": {"target": "T3, M. thermoresistibile OtsA L319I (Mycolicibacterium thermoresistibile, UniProt G7CGT2, L319I)", "T3 sequence (G7CGT2 1-486 L319I)": "T1 sequence (G7CGT2 1-486)", "experiment": "OtsA kinetic parameters, continuous colorimetric coupled assay (L319I)", "type": "biochemical, Mycobacterium thermoresistibile"}, "[4]": {"target": "T4, M. thermoresistibile OtsA L319I, V363F, E367L (Mycolicibacterium thermoresistibile, UniProt G7CGT2, E367L/L319I/V363F)", "T4 sequence (G7CGT2 1-486 L319I/V363F/E367L)": "T1 sequence (G7CGT2 1-486)", "experiment": "OtsA kinetic parameters, continuous colorimetric coupled assay (L319I, V363F, E367L)", "type": "biochemical, Mycobacterium thermoresistibile", "conditions": "triple mutant"}, "[5]": {"target": "M. thermoresistibile OtsA wild type (Mycolicibacterium thermoresistibile, UniProt G7CGT2)", "experiment": "OtsA kinetic parameters, continuous colorimetric coupled assay (wild type)", "type": "biochemical, Mycobacterium thermoresistibile"}, "MtrOtsA [6]": {"target": "T1, MtrOtsA", "conditions": "ITC, 25°C, 60 μM OtsA, 1 mM ligand"}},
  "data": [
    {"smiles": "Nc1ncnc2c1ncn2[C@@H]1O[C@H](COP(=O)(O)OP(=O)(O)O[C@H]2O[C@H](CO)[C@@H](O)[C@H](O)[C@H]2O)[C@@H](O)[C@H]1O", "note": "[ADP-glucose]", "values": [
      {"measurement": "Kd", "setting": "MtrOtsA [1]", "result": "27.2 ± 2.66", "unit": "µM"},
      {"measurement": "fold increase in Km^app over the wild type", "setting": "[2]", "result": "~2.5", "unit": "fold"},
      {"measurement": "fold increase in Km^app compared to the wild type", "setting": "[3]", "result": "~3", "unit": "fold"},
      {"measurement": "fold increase in Km^app compared to the wild type", "setting": "[4]", "result": "~5", "unit": "fold"}
    ]},
    {"smiles": "Nc1nc2c(ncn2[C@@H]2O[C@H](COP(=O)(O)OP(=O)(O)O[C@H]3O[C@H](CO)[C@@H](O)[C@H](O)[C@H]3O)[C@@H](O)[C@H]2O)c(=O)[nH]1", "note": "[GDP-glucose]", "values": [
      {"measurement": "turnover, fold lower than ADP-glucose", "setting": "[5]", "result": 5, "unit": "fold"},
      {"measurement": "heat of binding", "setting": "MtrOtsA [6]", "result": "no observable heat of binding"},
      {"measurement": "fold increase in Km^app over the wild type", "setting": "[2]", "result": "~2.5", "unit": "fold"}
    ]}
  ]
}
